Measured values as given in the OPERA property sets (Mansouri et al. 2018).
Peptide text beside a SMILES is read from it.

Row | Structure (SMILES) | logP
1 | CCOP(=O)(N=C1SCC(C)S1)OCC (stereo not given) | 1.04
2 | O=[N+]([O-])c1ncn(CC(O)CN2CC2)n1 (stereo not given) | -0.72
3 | [O-][n+]1cccc(O)c1 | -0.61
4 | NN(c1ccccc1)c1ccccc1 | 2.8
5 | COP(=S)(OC)Oc1cc(C)c([N+](=O)[O-])c(C)c1 | 3.89
6 | CNc1ccccc1 | 1.66
7 | c1ccc2c(c1)CCCC2 | 3.49
8 | Cn1cnc2c1c(=O)[nH]c(=O)n2C | -0.78
9 | COC(=O)CNC(=O)c1ccc([N+](=O)[O-])cc1 | 0.98
10 | CC(=O)Nc1ncc([N+](=O)[O-])s1 | 1.3
11 | O=[N+]([O-])C=Cc1cccs1 | 1.96
12 | O=C(O)CCc1ccc(O)cc1 | 1.16
13 | O=S1(=O)OCC2C(CO1)C1(Cl)C(Cl)=C(Cl)C2(Cl)C1(Cl)Cl (stereo not given) | 3.66
14 | CN(C)C(=O)OCc1ccc([N+](=O)[O-])cc1 | 1.95
15 | CN(C)/N=N/c1ccccc1CO | 1.73
16 | O=C(Cc1ccccc1)c1ccccc1 | 3.18
17 | O=C(O)CCCn1nnc2ccccc21 | 0.01
18 | CCC(=O)c1ccncc1 | 0.77
19 | ICCCc1ccccc1 | 3.9
20 | Cc1ccc(N)nc1 | 1.02
21 | CCc1ccccc1O | 2.47
22 | N#Cc1ccc2[nH]ccc2c1 | 2.38
23 | COC(=O)c1cccc(S(I)=C(N(C)C)N(C)C)c1 (stereo not given) | -0.75
24 | CCOCOCC | 0.84
25 | C=C(Br)CC1(C(C)C)C(=O)NC(=O)NC1=O | 1.47

Row | Structure (SMILES) | logP
26 | O=C(O)COc1ccc(Cl)c(Br)c1 | 2.75
27 | BrC1CCCCC1 | 3.2
28 | Nc1nc(N)nc(-c2cccc(C(F)(F)F)c2)n1 | 2.67
29 | CCOc1ccc2nc(S(N)(=O)=O)sc2c1 | 2.01
30 | O=C(O)COc1ccc(S(=O)(=O)F)cc1 | 1.82
31 | OCCc1cccnc1 | 0.12
32 | C=C1C(=O)OC2C1CCC(C)C1(O)C=CC(=O)C21C (stereo not given) | 0.77
33 | Brc1nc(Br)c(Br)[nH]1 | 1.96
34 | CC(=O)Nc1ccc2ncccc2c1 | 1.55
35 | CN(C)N=Nc1cccc(C(F)(F)F)c1 | 3.78
36 | OCc1cccc(C(F)(F)F)c1 | 2.24
37 | O=[N+]([O-])c1cccc(Cl)c1Cl | 3.05
38 | CCOP(=S)(OCC)SCSC(C)(C)C | 4.48
39 | O=[N+]([O-])c1cn[nH]c1 | 0.59
40 | COc1ccc(OCC(=O)O)cc1 | 1.23
41 | C=CCN(C(C)=O)C(C)C | 1.14
42 | CC(=O)Oc1cccc2cccnc12 | 2.03
43 | CNC(=O)Oc1ccccc1C(C)C | 2.31
44 | Cc1cccc(OCc2ccccc2)n1 | 3.43
45 | O=[N+]([O-])c1ccc(N=C=S)cc1 | 3.62
46 | O=C(O)CN1CCN(C(=O)Cn2c(=O)sc3ccc(Cl)cc32)CC1 | -0.71
47 | C=CCN1CCc2nc(N)sc2CC1 | 1.48
48 | CC(C)OC(=O)C(C(=O)OC(C)C)=C1SCCS1=O (stereo not given) | 1.6
49 | N#CC(C#N)=NNc1ccccc1 | 2.67
50 | CCCCCCOc1cccc(NC(=O)OCCN2CCCCC2)c1 | 5.51

Row | Structure (SMILES) | logP
51 | C=CCNCC | 0.81
52 | Oc1c(O)c(Cl)c(Cl)c(Cl)c1Cl | 4.29
53 | CSc1nc(NC(C)C)nc(NC(C)C)n1 | 3.51
54 | Cc1ccc(C)cc1 | 3.15
55 | Nc1ccc(Cl)cc1N | 1.28
56 | CC(=O)NCC(=O)N[C@@H](C)C(=O)N[C@H](C(N)=O)C(C)C (Ac-Gly-Ala-Val-NH2) | -1.56
57 | C=CC(=O)OCCO | -0.21
58 | O=c1[nH]cc(Cl)c(=O)[nH]1 | -0.35
59 | NC(=O)c1ccc(C(F)(F)F)cc1 | 1.71
60 | Cc1[nH]cnc1CSCCNc1ncc(Cc2ccc3c(c2)OCO3)c(=O)[nH]1 | 2.11
61 | CC(=O)c1ccccc1[N+](=O)[O-] | 1.28
62 | Nc1cccc(Cl)c1 | 1.88
63 | CCOc1c(NS(=O)(=O)c2ccc(N)cc2)ncnc1OC | 1.03
64 | CCC(C)Cl (stereo not given) | 2.33
65 | CN(C)C(N(C)C)=S(I)c1cccc(F)c1 (stereo not given) | -0.53
66 | Cc1cc(-c2ccccc2)nnc1NCCN1CCOCC1 | 2.03
67 | CCC1=Nc2ccc(Cl)cc2S(=O)(=O)N1 | 1.62
68 | C=CCC1(CC(=C)Br)C(=O)NC(=O)NC1=O | 1.37
69 | N=C(N)c1ccc(N)cc1 | -0.37
70 | Cn1c(N)nc2ccccc21 | 0.95
71 | N#Cc1ccc2cc[nH]c2c1 | 2.38
72 | CNC(=O)ON=C(C)SC | 0.6
73 | O=C(c1ccccc1)c1ccccn1 | 1.88
74 | O=c1cc[nH]c2ccccc12 | 0.58
75 | CC(O)Cc1ccccc1 (stereo not given) | 1.97

Row | Structure (SMILES) | logP
76 | CCCCCCCOC(N)=O | 2.36
77 | CCN(CC)Cc1cccnc1 | 1.01
78 | Brc1ccsc1 | 2.62
79 | COP(=O)(NC(C)=O)SC (stereo not given) | -0.85
80 | O=C(O)c1cc(O)cc(O)c1 | 0.86
81 | CCCCCCc1ccc(C(=O)OCCN(C)C)cc1 | 5.2
82 | Cc1ccc2cc(C)ccc2c1 | 4.31
83 | O=C(O)COc1ccc(Cl)cc1 | 2.25
84 | O=C(CCCN1CCN(c2ccccn2)CC1)c1ccc(F)cc1 | 3.3
85 | Brc1ccc2[nH]ccc2c1 | 3
86 | CC(C)C(C)C | 3.42
87 | FC(F)(F)Sc1ccccc1 | 3.57
88 | CCN1CCN(CC)C1=S | 1.13
89 | O=[N+]([O-])c1nccn1CCO | -0.47
90 | O=C(O)c1ccc(CO)cc1 | 0.93
91 | N#Cc1ccc(C(=O)O)cc1 | 1.56
92 | Nc1ncnc2c1ncn2[C@@H]1O[C@@H]2COP(=O)(O)O[C@H]2[C@H]1O | -2.96
93 | CN1CCOCC1 | -0.33
94 | CN(Cc1ccc(C#N)cc1)N=O | 0.95
95 | Clc1cncc(Cl)c1 | 2.56
96 | BrCCBr | 1.96
97 | c1cncnc1 | -0.4
98 | OCCO | -1.36
99 | ON=CCCc1ccccc1 | 1.56
100 | CCOC(=O)CON=Cc1ccc(OCCOC(=O)CC)c(OC)c1 | 2.39

Row | Structure (SMILES) | logP
101 | Nc1ccc2ccccc2c1 | 2.28
102 | NC(=S)c1ccccc1N | 0.99
103 | COC(=O)c1cnc2ccccc2c1 | 2.25
104 | Cc1cc(NS(=O)(=O)c2ccc(N)cc2)nc(C)n1 | -0.33
105 | O=[N+]([O-])c1ccccc1 | 1.85
106 | On1nc2ccccc2n1 | 0.69
107 | CCOC(=O)C(=Cc1cccc(OCC)c1)C(C)=O | 2.71
108 | CN1CCN(CC(=O)N/N=C/c2ccc([N+](=O)[O-])o2)CC1 | -0.1
109 | CCCCCCN(C)N=Nc1ccc(C(N)=O)cc1 | 3.69
110 | CN(C)CCNC(=O)c1ccccc1 | 1.1
111 | N#CCC(=O)NC(CO)C(O)c1ccc([N+](=O)[O-])cc1 (stereo not given) | -0.22
112 | O=Cc1ccc[nH]1 | 0.64
113 | Cc1ccccc1S(I)=C(N(C)C)N(C)C (stereo not given) | -0.1
114 | O=C(O)c1ccccc1S | 2.39
115 | NC(=O)c1cnc2ccccc2c1 | 1.06
116 | CC(C)(C)c1ccc(N)cc1 | 2.7
117 | O=C(Nc1ccccc1)c1ccccc1O | 3.27
118 | NC(=O)Nc1cccc(Br)c1 | 2.08
119 | Cn1c(=O)ccc2ccccc21 | 1.45
120 | CN(C)C(N(C)C)=S(I)c1ccc(Cl)cc1 (stereo not given) | -0.2
121 | CCCCCCCCBr | 4.89
122 | Cl[C@@H]1CCCC[C@H]1Cl | 3.21
123 | Clc1cccc(-c2ccccc2Cl)c1 | 5.02
124 | C=C(Cl)Cl | 2.13
125 | C=C(CC(Cl)(Cl)Cl)c1ccccc1 | 4.56
